Measured values: US5847076A, “Regulators of the proteasome” (Board of Regents, The University of Texas System, priority 1993, dated 1998)
Like-named read-outs stand apart in the source and are kept apart here. Numbered stars: 1 amine (or outer) side, 2 acyl side, 3 side chain; on linkers, the order of the positions; unused ones are H or OH. Peptide text beside a SMILES is read from it. CO = O=C([*:1])[*:2]

Assays:
[1] = tested on: PA28-inactivating protein; experiment: Effect of protease inhibitors on peptidase activity (Z-Leu-Arg-MNA hydrolysis) of PA28-inactivating protein; assay type: biochemical, bovine
Description: (§1) Assay for PA28-inactivating activity. The inactivation of PA28 was assessed by measuring residual PA28 activity after preincubation of purified PA28 with the inactivating protein. The preincubation contained purified bovine red blood cell PA28 (0.2 μg), 100 mM MES buffer, pH 5.2, 2 mM DTT, and inactivating protein or other factors, as described in this example, in a final volume of 15 μl. After preincubation at […] for 10 min., the reaction was stopped by addition of 1.0 ml of a solution containing 50 mM Trios-HCl, pH 8.0, 1 mM DTT, and 50 μM Suc-LeuLeu-Val-Tyr-AMC (or other proteasome substrate). […] The assays consisted of 50 mM MES buffer, pH 5.2, 1 mM DTT, 50 μM substrate, and 50 μl of column fractions in a final volume of 1.0 ml. Reactions were carried out at 30° C. and the release of free MNA (or other reporter group) was monitored directly by fluorescence. 1.0 unit of activity is defined as the increase in product concentration of 1.0 nM/min.

[2] = tested on: PA28-inactivating protein; experiment: Effect of protease inhibitors on PA28-inactivating activity; assay type: biochemical, bovine
Description: as §1

20S proteasome = experiment: Assay for PA700 activity (ATP-dependent activation of proteasome); assay type: biochemical, bovine; settings: for ability of nucleotide to promote proteasome activation by PA700: in place of ATP
Description: Assay for PA700 activity. PA700 activity was assayed by measuring the increase in proteasome hydrolysis of the synthetic peptide Suc-Leu-Leu-Val-Tyr-AMC after preincubation of the two components in the presence of ATP. The standard preincubation solution consisted of 45 mM Tris-HCl, pH 7.5, 5 mM DTT, 60 μM ATP, 500 μM MgCl2, 0.3 μg purified proteasome, PA700 as indicated in specific experiments, and any other component as specified, in a final volume of 50 μl. This solution was preincubated at 37° C. for 45 min. The preincubation was ended by the addition of 1.0 ml of a solution containing 50 mM Tris-HCl, pH 8.0, 1 mM DTT, and 50 μM Suc-Leu-Leu-Val-Tyr-AMC. The rate of hydrolysis of the substrate was determined directly by fluorescence as described previously. Routine control assays were conducted in parallel and consisted of the complete procedure but without PA700. […] PA700 activity is defined as the increase in proteasome activity between the two conditions.

[3] = tested on: PA28-inactivating protein; experiment: Hydrolysis of synthetic peptides and proteins by PA28-inactivating protein; assay type: biochemical, bovine; settings: 0.05 μg enzyme, 50 μM substrate, 50 mM MES pH 5.2, 30° C.; 1.0 unit = 1.0 nM/min product
Description: as §1

[4] = tested on: T1, proteasome activation by PA28; experiment: Inhibition of PA28-activated proteasome by carboxy-terminal peptide; assay type: biochemical; settings: kind of activity not specified further
T1 construct: from tissue
Description: Proteasome activity in the absence of PA28 was 1.2 units/assays. Assays contained 0.5 μg of proteasome and 1 μg of PA28.
Therefore, this peptide or a compound with similar properties may be used to block the action of the proteasome in intact cells. Such a compound or analogs having similar binding activity may be used to control accelerated rates of intracellular protein degradation. The peptide has the sequence: Acetyl-KNFEKLKKPRGETKGMIY (SEQ ID NO. 3). The N-terminal lysine may be acetylated if needed for stability. […] Therefore, the C-terminal Ile-Tyr amino acids or their functional equivalents appear to be important for binding of the 18-mer to the proteasome and for inhibition of the activation of the proteasome by activating factors PA28 and PA700. An equivalent of the 18-mer may comprise less than 18 amino acids or may comprise functionally equivalent amino acid replacements which allow similar binding activity.

PA28 = experiment: Assay for PA28-inactivating activity (residual PA28 activity after preincubation with peptidase); assay type: biochemical, bovine
Description: as §1

[5] = inhibitor 1 mM, preincubated 10 min at 30° C., Z-Leu-Arg-MNA
[6] = inhibitor 1 mM, preincubated 10 min at 30° C.
[7] = inhibitor 2 μM, preincubated 10 min at 30° C., Z-Leu-Arg-MNA

## O=c1oc(Cl)c(Cl)c2ccccc12 [3,4-Dichloroisocoumarin, 3,4-dichloroisocoumarin]
[1]
  effect on the purified PA28-inactivating protein (PA28-inactivating activity and Z-Leu-Arg-MNA hydrolysis), in words: had no effect
[1]; [5]
  Peptidase Activity (% Inhibition): 0 % Inhibition
[2]; [6]
  PA28-Inactivating Activity (% Inhibition): 0 % Inhibition

## Nc1ncnc2c1ncn2[C@@H]1O[C@H](COP(=O)(O)OP(=O)(O)O)[C@@H](O)[C@H]1O [ADP]
20S proteasome
  ability of nucleotide to promote proteasome activation by PA700: Neither ADP, AMP, adenosine, nor PPi promoted proteasome activation

## Nc1ncnc2c1ncn2[C@@H]1O[C@H](COP(=O)(O)O)[C@@H](O)[C@H]1O [AMP]
20S proteasome
  ability of nucleotide to promote proteasome activation by PA700: Neither ADP, AMP, adenosine, nor PPi promoted proteasome activation

## Nc1ncnc2c1ncn2[C@@H]1O[C@H](COP(=O)(O)OP(=O)(O)OP(=O)(O)O)[C@@H](O)[C@H]1O [ATP]
20S proteasome
  ATP concentration for maximal proteasome activation by PA700: approximately 60 μM

## NCCc1ccc(S(=O)(=O)F)cc1 [Aminoethylbenzenesulfonylfluoride, aminoethylbenzenesulfonylfluoride]
[1]
  effect on the purified PA28-inactivating protein (PA28-inactivating activity and Z-Leu-Arg-MNA hydrolysis), in words: had no effect
[1]; [5]
  Peptidase Activity (% Inhibition): 0 % Inhibition
[2]; [6]
  PA28-Inactivating Activity (% Inhibition): 0 % Inhibition

## CC(C)[C@H](NC(=O)[C@H](CCCNC(=N)N)NC(=O)N[C@@H](Cc1ccccc1)C(=O)O)C(=O)N[C@H](C=O)CCCNC(=N)N [Antipain] ({Phe-CO}-Arg-Val-Arg-aldehyde)
[1]
  effect on the purified PA28-inactivating protein (PA28-inactivating activity and Z-Leu-Arg-MNA hydrolysis), in words: inhibited the PA28-inactivating protein at concentrations in the μM range
[1]; [7]
  Peptidase Activity (% Inhibition): 88 % Inhibition
[2]; inhibitor 2 μM, preincubated 10 min at 30° C.
  PA28-Inactivating Activity (% Inhibition): 90 % Inhibition

## CC(C)C[C@H](NC(=O)[C@@H](O)[C@H](N)Cc1ccccc1)C(=O)O [Bestatin]
[1]; [7]
  Peptidase Activity (% Inhibition): 19 % Inhibition

## Nc1ccn([C@@H]2O[C@H](COP(=O)(O)OP(=O)(O)OP(=O)(O)O)[C@@H](O)[C@H]2O)c(=O)n1 [CTP]
20S proteasome; higher than ATP
  concentration required for proteasome activation by PA700 relative to ATP: 100 fold
20S proteasome
  ability of nucleotide to promote proteasome activation by PA700: could also activate the proteasome

## O=C(O)CI [Iodoacetate]
[1]
  effect on the purified PA28-inactivating protein (PA28-inactivating activity and Z-Leu-Arg-MNA hydrolysis), in words: inhibited each activity
[1]; 10 min, 100 µM
  Peptidase Activity (% Inhibition): 83 % Inhibition
[2]
  effect on PA28-inactivating activity of bovine liver extract: inhibited
[2]; 10 min, 100 µM
  PA28-Inactivating Activity (% Inhibition): 93 % Inhibition

## CC(=O)N[C@@H](CC(C)C)C(=O)N[C@@H](CC(C)C)C(=O)N[C@H](C=O)CCCNC(=N)N [Leupeptin]
[1]
  effect on the purified PA28-inactivating protein (PA28-inactivating activity and Z-Leu-Arg-MNA hydrolysis), in words: inhibited the PA28-inactivating protein at concentrations in the μM range
[1]; inhibitor 1 μM, preincubated 10 min at 30° C., Z-Leu-Arg-MNA
  Peptidase Activity (% Inhibition): 100 % Inhibition
[2]; inhibitor 1 μM, preincubated 10 min at 30° C.
  PA28-Inactivating Activity (% Inhibition): 100 % Inhibition
[2]; preliminary characterization, crude liver extract
  effect on PA28-inactivating activity of bovine liver extract: inhibited

## O=P(O)(O)OP(=O)(O)O [PPi]
20S proteasome
  ability of nucleotide to promote proteasome activation by PA700: Neither ADP, AMP, adenosine, nor PPi promoted proteasome activation

## COc1cc(NC(=O)[C@H](Cc2ccccc2)NC(=O)[C@H](CC(C)C)NC(=O)[C@H](Cc2ccccc2)NC(=O)CCC(=O)O)cc2ccccc12 [Suc--Phe--Leu--Phe--MNA]
[3]
  hydrolysis by PA28-inactivating protein: 0 UNITS/μg

## Cc1cc(=O)oc2cc(NC(=O)[C@H](Cc3ccc(O)cc3)NC(=O)CCC(=O)O)ccc12 [Suc--Tyr--AMC]
[3]
  hydrolysis by PA28-inactivating protein: 0 UNITS/μg

## Cc1ccc(S(=O)(=O)N[C@@H](CCCCN)C(=O)CCl)cc1 [TLCK]
[1]; 10 min, 50 µM
  Peptidase Activity (% Inhibition): 88 % Inhibition

## Cc1ccc(S(=O)(=O)N[C@@H](Cc2ccccc2)C(=O)CCl)cc1 [TPCK]
[1]; inhibitor 50 μM, preincubated 10 min at 30° C., Z-Leu-Arg-MNA
  Peptidase Activity (% Inhibition): 0 % Inhibition
[2]; inhibitor 50 μM, preincubated 10 min at 30° C.
  PA28-Inactivating Activity (% Inhibition): 0 % Inhibition

## COc1cc(NC(=O)[C@H](CCCNC(=N)N)NC(=O)OCc2ccccc2)cc2ccccc12 [Z--Arg--MNA]
[3]
  hydrolysis by PA28-inactivating protein: 0 UNITS/μg

## O=C(CNC(=O)OCc1ccccc1)NCC(=O)N[C@@H](Cc1ccccc1)C(=O)Nc1ccc2ccccc2c1 [Z--Gly--Gly--Phe--βNA] (HELM PEPTIDE1{[O=C(OCc1ccccc1)[*:2]].G.G.F.[c1ccc2cc(N[*:1])ccc2c1]}$$$$V2.0)
[3]
  hydrolysis by PA28-inactivating protein: 0 UNITS/μg

## COc1cc(NC(=O)[C@H](CCCNC(=N)N)NC(=O)[C@@H]2CCCN2C(=O)CNC(=O)OCc2ccccc2)cc2ccccc12 [Z--Gly--Pro--Arg--MNA]
[3]
  hydrolysis by PA28-inactivating protein: 13 UNITS/μg

## COc1cc(NC(=O)[C@H](CCCNC(=N)N)NC(=O)[C@H](CC(C)C)NC(=O)OCc2ccccc2)cc2ccccc12 [Z--Leu--Arg--MNA, Z-Leu-Arg-MNA]
[3]
  hydrolysis by PA28-inactivating protein: 98 UNITS/μg

## COc1cc(NC(=O)[C@H](CCCCN)NC(=O)[C@H](CC(C)C)NC(=O)[C@H](CC(C)C)NC(=O)OCc2ccccc2)cc2ccccc12 [Z--Leu--Leu--Lys--MNA]
[3]
  hydrolysis by PA28-inactivating protein: 19 UNITS/μg

## C[C@H](NC(=O)[C@H](Cc1ccccc1)NC(=O)OCc1ccccc1)C(=O)C=[N+]=[N-] [Z--Phe--Ala--CHN2]
[1]; inhibitor 15 μM, preincubated 10 min at 30° C., Z-Leu-Arg-MNA
  Peptidase Activity (% Inhibition): 85 % Inhibition

## COc1cc(NC(=O)[C@H](Cc2ccc(O)cc2)NC(=O)[C@H](CO)NC(=O)OCc2ccccc2)cc2ccccc12 [Z--Ser--Tyr--MNA]
[3]
  hydrolysis by PA28-inactivating protein: 0 UNITS/μg

## COc1cc(NC(=O)[C@H](CCCNC(=N)N)NC(=O)[C@H](CC(C)C)NC(=O)[C@@H](NC(=O)OCc2ccccc2)C(C)C)cc2ccccc12 [Z--Val--Leu--Arg--MNA, Z-Val-Leu-Arg-MNA]
[3]
  hydrolysis by PA28-inactivating protein: 28 UNITS/μg

## Nc1ncnc2c1ncn2[C@@H]1O[C@H](CO)[C@@H](O)[C@H]1O [adenosine]
20S proteasome
  ability of nucleotide to promote proteasome activation by PA700: Neither ADP, AMP, adenosine, nor PPi promoted proteasome activation

## Chymostatin
[1]
  effect on the purified PA28-inactivating protein (PA28-inactivating activity and Z-Leu-Arg-MNA hydrolysis), in words: inhibited the PA28-inactivating protein at concentrations in the μM range
[1]; inhibitor 5 μM, preincubated 10 min at 30° C., Z-Leu-Arg-MNA
  Peptidase Activity (% Inhibition): 83 % Inhibition

## Ile-Tyr
[4]
  activity of the dipeptide by itself: very weak activity

## trypsin
PA28
  effect of peptidase or protease on PA28 activity: rapidly inactivated PA28

B1: Carboxypeptidase Y: Carboxypeptidase Y from yeast (Boehringer, 1111914) (protein, UniProt P00729 112-532, looked up)
Carboxypeptidase Y: KIKDPKILGIDPNVTQYTGYLDVEDEDKHFFFWTFESRNDPAKDPVILWLNGGPGCSSLTGLFFELGPSSIGPDLKPIGNPYSWNSNATVIFLDQPVNVGFSYSGSSGVSNTVAAGKDVYNFLELFFDQFPEYVNKGQDFHIAGESYAGHYIPVFASEILSHKDRNFNLTSVLIGNGLTDPLTQYNYYEPMACGEGGEPSVLPSEECSAMEDSLERCLGLIESCYDSQSVWSCVPATIYCNNAQLAPYQRTGRNVYDIRKDCEGGNLCYPTLQDIDDYLNQDYVKEAVGAEVDHYESCNFDINRNFLFAGDWMKPYHTAVTDLLNQDLPILVYAGDKDFICNWLGNKAWTDVLPWKYDEEFASQKVRNWTASITDEVAGEVKSYKHFTYLRVFNGGHMVPFDVPENALSMVNEWIHGGFSL
PA28
  effect of peptidase or protease on PA28 activity: each inactivated PA28 without detectably altering its molecular weight on SDS-PAGE

B2: Carboxypeptidase B: Carboxypeptidase B from bovine pancreas (Sigma C7261) (protein, UniProt P00732 111-417, looked up)
Carboxypeptidase B: TTGHSYEKYNNWETIEAWTEQVASENPDLISRSAIGTTFLGNTIYLLKVGKPGSNKPAVFMDCGFHAREWISPAFCQWFVREAVRTYGREIHMTEFLDKLDFYVLPVVNIDGYIYTWTTNRMWRKTRSTRAGSSCTGTDLNRNFDAGWCSIGASNNPCSETYCGSAAESEKESKAVADFIRNHLSSIKAYLTIHSYSQMMLYPYSYDYKLPKNNVELNTLAKGAVKKLASLHGTTYTYGPGASTIYPASGGSDDWAYDQGIKYSFTFELRDKGRYGFVLPESQIQPTCEETMLAIKYVTSYVLEHLY
PA28
  effect of peptidase or protease on PA28 activity: each inactivated PA28 without detectably altering its molecular weight on SDS-PAGE
